Counter-ions that a name gives are not always drawn.

The source of these data is patent US20080319087A1, “Use of Ambroxol for the Treatment of Rhinovirus Infections” (priority 2005, published 2008).

One series concerns influenza A virus. The conditions noted are these: mice infected with influenza A virus; Yang et al., Eur. Resp. J. 19, 952-958 (2002); cited from earlier work.
Another series relates to HeLa cells. The series is classed as cell-based. The conditions noted are these: human, 5 days. How it is done: As a first step an assay on possible toxic effects of AX was performed by incubating HeLa cells with increasing dilutions of the test substance for 5 days.
Cell morphology was checked using a microscope. In addition, an assay for mitochondrial enzyme activity (MTT-assay) was used to evaluate the vitality of cells. No changes in cell morphology and enzyme activity were found at concentrations of 10 μg AX/ml and below.

In series [1] the test system is human rhinovirus subtype 14 (HRV 14). The experiment in a line: plaque-reduction assay, HeLa cells infected with human rhinovirus subtype 14. Format: cell-based. The method, then: For the purpose of the study HeLa cells were inocculated with human rhinovirus subtype 14 (HRV 14), isolated from nasopharyngeal secretions. Ambroxol hydrochloride (AX) was chosen as the compound for antiviral testing. The antiviral activity of the test substance was evaluated in the plaque-reduction assay. To test the effect of AX on rhinovirus replication HeLa cells were infected with a multiplicity of infection (MOI) of 0.0002, without (control for 100% infection) or in the presence of AX at concentrations between 0.3 and 10 μg/ml. Infected cell cultures were cultivated for three days. Inhibition of virus plaques was evaluated microscopically and compared with controls.

With `Nc1c(Br)cc(Br)cc1CNC1CCC(O)CC1` (stereo not drawn) [Ambroxol, trans-4-(2-amino-3,5-dibromobenzylamino)-cyclohexanole], the survival rate result with influenza A virus is “increase the survival rate”.
In the case of `Nc1c(Br)cc(Br)cc1CN[C@H]1CC[C@H](O)CC1` [Ambroxol hydrochloride], in the series with HeLa cells, the “concentrations at which no changes in cell morphology were found” value was at most 10 μg AX/ml and the “concentrations at which no changes in enzyme activity were found” value was at most 10 μg AX/ml. In addition, the inhibition at 0.3 µg/mL in series [1] (Human rhinovirus sp., 72 h, 0.3 μg/ml, HeLa cells, HRV 14, MOI 0.0002, three days, average of 6 individual tests, read-out: relative inhibition) amounted to 9.71%. In addition, the inhibition at 0.6 µg/mL in series [1] (Human rhinovirus sp., 72 h, 0.6 μg/ml, HeLa cells, HRV 14, MOI 0.0002, three days, average of 6 individual tests, read-out: relative inhibition) is 14.4%. Besides, in series [1] (Human rhinovirus sp., 72 h, 1.2 μg/ml, HeLa cells, HRV 14, MOI 0.0002, three days, average of 6 individual tests, read-out: relative inhibition), the inhibition at 1.2 µg/mL worked out at 34.3%. Also, in series [1] (Human rhinovirus sp., 72 h, 2.5 μg/ml, HeLa cells, HRV 14, MOI 0.0002, three days, average of 6 individual tests, read-out: relative inhibition), the inhibition at 2.5 µg/mL is 36.8%. Moreover, the inhibition at 5 µg/mL in series [1] (Human rhinovirus sp., 72 h, 5 μg/ml, HeLa cells, HRV 14, MOI 0.0002, three days, average of 6 individual tests, read-out: relative inhibition) turned out to be 63.7%. Besides, in series [1] (Human rhinovirus sp., 72 h, 10 μg/ml, HeLa cells, HRV 14, MOI 0.0002, three days, average of 6 individual tests, read-out: relative inhibition), the inhibition at 10 µg/mL was found to be 70.7%. Further, the rhinovirus replication entry in series [1] (conclusion from Table 6) is given as “effectively blocks rhinovirus replication”.

The term inhibition denotes how much of the control response was suppressed.
